Values of other authors as cited in US8580852B2, “2-oxamide inhibitors of phospholipase A2 activity and cellular arachidonate release based on dipeptides and pseudopeptides” (The Regents of the University of California, priority 2009, dated 2013).
Marks after values point to notes of the source that are not given here.

Legend:
GIVA cPLA2 = molecular target: T1, GIVA cPLA2 (Homo sapiens, UniProt P47712); conditions: reference inhibitors; data taken from ref 15; cited from earlier work
T1 sequence (P47712 1-749): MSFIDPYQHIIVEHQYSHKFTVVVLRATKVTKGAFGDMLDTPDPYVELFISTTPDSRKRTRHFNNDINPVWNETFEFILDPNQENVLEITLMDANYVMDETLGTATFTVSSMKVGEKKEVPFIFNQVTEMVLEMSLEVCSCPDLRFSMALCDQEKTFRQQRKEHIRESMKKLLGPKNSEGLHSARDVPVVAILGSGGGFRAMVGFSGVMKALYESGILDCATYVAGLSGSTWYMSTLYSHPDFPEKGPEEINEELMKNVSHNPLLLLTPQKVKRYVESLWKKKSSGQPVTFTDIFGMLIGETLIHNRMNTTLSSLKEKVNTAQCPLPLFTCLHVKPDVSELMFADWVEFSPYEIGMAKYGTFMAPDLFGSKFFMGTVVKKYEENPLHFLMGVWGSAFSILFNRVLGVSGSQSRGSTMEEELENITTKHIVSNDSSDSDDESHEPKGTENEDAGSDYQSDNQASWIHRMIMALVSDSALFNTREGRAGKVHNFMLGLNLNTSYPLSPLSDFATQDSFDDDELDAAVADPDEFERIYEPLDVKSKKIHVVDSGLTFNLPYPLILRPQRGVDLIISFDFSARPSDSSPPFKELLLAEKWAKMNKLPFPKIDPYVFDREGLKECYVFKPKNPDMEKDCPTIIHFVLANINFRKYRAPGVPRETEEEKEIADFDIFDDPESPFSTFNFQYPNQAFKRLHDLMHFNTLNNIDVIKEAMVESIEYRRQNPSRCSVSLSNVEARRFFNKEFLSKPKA

GVIA iPLA2 = molecular target: T2, GVIA iPLA2 (Homo sapiens, UniProt O60733); conditions: reference inhibitors; data taken from ref 15; cited from earlier work
T2 sequence (O60733 1-806): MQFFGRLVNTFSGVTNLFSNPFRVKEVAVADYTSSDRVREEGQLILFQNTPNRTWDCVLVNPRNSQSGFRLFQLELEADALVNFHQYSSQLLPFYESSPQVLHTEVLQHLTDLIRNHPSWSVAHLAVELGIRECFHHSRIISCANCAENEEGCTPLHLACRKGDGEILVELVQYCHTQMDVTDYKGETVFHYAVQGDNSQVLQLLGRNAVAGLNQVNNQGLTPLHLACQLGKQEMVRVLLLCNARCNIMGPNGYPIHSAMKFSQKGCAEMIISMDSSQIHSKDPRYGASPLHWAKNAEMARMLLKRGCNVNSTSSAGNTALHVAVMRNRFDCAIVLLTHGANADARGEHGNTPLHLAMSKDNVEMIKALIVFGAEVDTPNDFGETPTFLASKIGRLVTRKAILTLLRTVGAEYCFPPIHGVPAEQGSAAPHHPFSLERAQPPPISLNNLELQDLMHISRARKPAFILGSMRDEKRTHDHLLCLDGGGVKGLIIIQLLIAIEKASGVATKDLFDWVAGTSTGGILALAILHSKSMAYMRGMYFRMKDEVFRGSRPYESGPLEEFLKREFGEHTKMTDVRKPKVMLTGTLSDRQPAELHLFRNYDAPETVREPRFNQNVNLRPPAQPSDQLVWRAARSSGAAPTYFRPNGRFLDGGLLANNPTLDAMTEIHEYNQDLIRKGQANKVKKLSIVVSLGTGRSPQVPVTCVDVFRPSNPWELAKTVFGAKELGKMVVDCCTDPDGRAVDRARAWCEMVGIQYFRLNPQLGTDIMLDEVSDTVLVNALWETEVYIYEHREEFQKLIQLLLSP

## CCCCCCCCCCCCCCC(=O)C(=O)NCCCC(=O)OCC [AX048, reference compound]
GIVA cPLA2
  GIVA cPLA2 X1(50): 0.022 ± 0.009^b mole fraction
GVIA iPLA2
  GVIA iPLA2 X1(50): 0.027 ± 0.009^b mole fraction
